Data: patent US9399047B2, “Composition and method to alleviate joint pain using phospholipids and roe extract” (U.S. NUTRACEUTICALS, LLC, priority 2009, dated 2016)

What was measured:
[1] = test system: lens epithelial cells; settings: in vitro, umol/L concentrations; cited from earlier work
[2] = test system: healthy adults; settings: eight weeks, 6 mg per day; cited from earlier work
[3] = cited from earlier work
[4] = 4 mgs/day, compared to untreated subjects; cited from earlier work
[5] = cited from earlier work; remark: listed apart in the source
[6] = test system: cellular membrane lipid peroxidation; settings: cited from earlier work
[7] = test system: inflammatory markers; settings: astaxanthin 1 mg/kg, cited from earlier work
[8] = test system: photo-receptors, ganglion and neuronal cell; settings: cited from earlier work
[9] = test system: rats; settings: cited from earlier work
[10] = serum; cited from earlier work
[11] = test system: NO, PGE-2 and TNF-Alpha; settings: induced uveitis; cited from earlier work
[12] = test system: C-Reactive Protein (C-RP); settings: human subjects with high risk levels of C-RP, three months of treatment; cited from earlier work
[13] = cited from earlier work; remark: listed apart in the source
[14] = solubility; type: physicochemical
Excerpt: It is also possible to use a pure diol of the S,S′ astaxanthin, including a synthetic diol with a surfactant and/or the low molecular weight hyaluronic acid. It is possible to use that pure diol in combination with the EPA rich algae based oil or other fish, roe extract, or plant based oil and/or phospholipid and/or surfactant as described above, and which is admixed with either astaxanthin derived from Haematococcus pluvialis or the free diol form in substantially pure S,S′ enantiomer form. It is possible to add synthetically derived mixed enantiomers of the diol. The diol of the S,S′ astaxanthin is possible because in cases of krill oil and possibly algae based oils and Hp derived and other types, there are principally diesters and monoesters respectively with very little diol, which is insoluble. […] It is possible to synthesize asymmetrically the S,S′ pure diol. Despite the pure diol's poor solubility in some examples, there may be an active transport mechanism related to its bioavailability, or conversely, that only in the diol form is the monoester or diester forms transferred from the intestines to the blood. […]

SMILES: CC1=C(/C=C/C(C)=C/C=C/C(C)=C/C=C/C=C(C)/C=C/C=C(C)/C=C/C2=C(C)C(=O)[C@@H](O)CC2(C)C)C(C)(C)C[C@H](O)C1=O [Astaxanthin, 3,3′-dihydroxy-β-β-carotene-4,4′-dione]
- UVB induced lipid peroxidative mediated cell damage [1]: suppresses
- negative effect of supplementation [2]: no negative effect
- free radical quenching ability, times more powerful than Vitamin C ([3]; versus Vitamin C): 65 times
- free radical quenching ability, times more powerful than Vitamin E ([3]; versus Vitamin E): 14 times
- free radical quenching ability, times more powerful than lutein ([3]; versus lutein): 47 times
- free radical quenching ability, times more powerful than β-carotene ([3]; versus β-carotene): 54 times
- post exercise joint fatigue following strenuous knee exercise [4]: prevented post exercise joint fatigue
- quenching of singlet oxygen, times more powerful than Vitamin E ([5]; versus Vitamin E): about 50 times
- quenching of singlet oxygen, relative to lutein ([5]; versus lutein): three times more powerful
- quenching of singlet oxygen, times more powerful than β-carotene ([5]; versus β-carotene): 11 times
- effect on pro-oxidant activity of Vioxx [6]: negate the pro-oxidant activity of Vioxx
- down regulates TNF-alpha production ([7]; in vitro and in vivo): 75%
- down regulates prostaglandin E-2 production (PGE-2) ([7]; in vitro and in vivo): 75%
- inhibits nitric oxide synthase (Nos) expression of nitric oxide ([7]; in vitro and in vivo): 58%
- effects on inflammatory markers compared with prednisolone [7]: nearly as effective as prednisolone
- crossing of the blood-brain-retina barrier ([8]; direct measurement of retinal astaxanthin concentrations): crosses the blood-brain-retina barrier
- photon induced damage of photo-receptors, ganglion and neuronal cell damage ([8]; in vivo): protection
- Oral LD 50 ([9]; rat, in vivo, po): 600 mg/kg
- NOAEL ([9]; rats): 465 mg/kg
- Cmax [10]: 65 ng/mL
- T1/2 [10]: 16 h
- Tmax [10]: 8 h
- ocular anti-inflammatory activity by suppression of NO, PGE-2 and TNF-Alpha [11]: dose dependant ocular anti-inflammatory activity
- patients whose serum C-RP levels dropped below the risk level [12]: 43%

SMILES: CC1=C(/C=C/C(C)=C/C=C/C(C)=C/C=C/C=C(C)/C=C/C=C(C)/C=C/C2=C(C)C(=O)[C@@H](O)CC2(C)C)C(C)(C)C[C@H](O)C1=O [free astaxanthin diol]
- uptake relative to esterified astaxanthin ([13]; human plasma, feeding studies): 4-5 times

SMILES: CC1=C(/C=C/C(C)=C/C=C/C(C)=C/C=C/C=C(C)/C=C/C=C(C)/C=C/C2=C(C)C(=O)[C@@H](O)CC2(C)C)C(C)(C)C[C@H](O)C1=O [diol of the S,S′ astaxanthin]
- solubility [14]: insoluble

SMILES: CCCCCCCCCCCCCCCC(=O)O[C@H]1CC(C)(C)C(/C=C/C(C)=C/C=C/C(C)=C/C=C/C=C(C)/C=C/C=C(C)/C=C/C2=C(C)C(=O)[C@@H](OC(=O)CCCCCCCCCCCCCCC)CC2(C)C)=C(C)C1=O [(3R,3′R-astaxanthin dipalmitate, reference compound]
- relative absorption of astaxanthin compared to the other two isomers ([13]; men, astaxanthin fatty acyl diesters (Coral-Hinostroza et al. 2004)): higher relative absorption
